From US8377918B2 (ACC Therapeutics Inc, priority 2005, dated 2013)
Read-outs that look alike come from different tables or passages of the source.

Assays:
[1] = tested on: H460 cells; assay: MTT cell proliferation assay, H460 lung cancer cells; assay type: cell-based, human; conditions: H460, 15 μM apigenin, 24 h
Description: FIG. 17. […] A, the prostate cancer cells PC-3 and DU145; B, colon cancer cells Colo-205 and HCT-116; C, lung cancer cells A549 and H460 cells were plated at 1×10^4 cells per well in a 96 well plate in 100 μl of media. […] FIG. 18. […] A and B, the prostate cancer cells PC-3 and DU145; C, colon cancer cells Colo-205 and HCT-116; D, lung cancer cells A549 and H460 cells were plated at 1×10^4 cells per well in a 96 well plate in 100 μl of media. […] The cell proliferation was analyzed by MTT assay. […] FIG. 22. […] A, colon cancer cells Colo-205 and HCT-116; B, lung cancer cells A549 and H460 cells were plated at 1×10^4 cells per well in a 96 well plate the day before the treatment. […] Cell proliferation was examined by MTT assay. […] FIG. 25.

[2] = tested on: tumors induced by A2780/CP70 cells; assay: Tumor weight of A2780/CP70 tumors on CAM; assay type: in vivo, chicken embryo; conditions: 2.5 μM CDDP, 10 days
Description: (§1) FIG. 4. […] The A2780/CP70 cells were seeded into 100 mm dish and grown to 90-100% confluence. […] In 10 days, the tumors were harvested and weighed. The blood vessel numbers of the tumor were counted under×100. At least five areas were determined. The data are mean±SD from two experiments (n=8). A, representative tumor morphology; B, tumor weight; C, relative numbers of blood vessels.

[3] = tested on: A2780/CP70 cells; assay: MTT cell proliferation assay, A2780/CP70 ovarian cancer cells; assay type: cell-based, human; conditions: for IC50: 24 h
Description: (§2) FIG. 1. […] (A) A2780/CP70 cells and human fibroblast GM847 cells were seeded in 96-well plate at 4×10^3 cells per well and incubated overnight. […] The cells were incubated for 24 h. Cell proliferation was determined by MTT reduction. […] Cells were trypsinized, harvested, washed once with PBS buffer, and stained using the Annexin-V-Folus Kit as per the manufacture's instructions. […] After incubation, all cells were collected and total DNA was isolated. Eight (8) μg of DNA was resolved on 1.8% agarose gel. […] (D) Treatment of GM847 cells was the same as that of 5D. […] Cleavage of caspase-3 and PARP was detected by western-blot.
FIG. 3. […] A2780/CP70 cells were seeded in 96-well plates and incubated overnight. The old medium was discarded and fresh medium with cisplatin (CDDP) in the presence or absence of apigenin (Api) was added. In 24 h, the cell proliferation was determined by means of MTT reduction method.
FIG. 9. […] A, Cisplatin-resistant ovarian cancer cell line A2780/CP70, and B, prostate cancer cells PC-3 were seeded in 96-well plates at 1×10^4 cells/well and incubated overnight. […] In 24 h, the cell proliferation was assayed by using a MTT assay kit. *indicates significant difference compared to cisplatin alone (p<0.01).

[4] = tested on: PC-3 cells; assay: MTT cell proliferation assay, PC-3 prostate cancer cells; assay type: cell-based, human
Description: (§3) FIG. 8. […] Prostate cancer cells PC-3 and DU145 were seeded in 96-well plates at 1×10^4 cells/well. […] The cell proliferation was assayed by culturing the cells for 24 h, then adding 10 μl of MTT reagent with incubation for 2 h. The reaction was stopped by adding 100 μl of solubilization solution. The relative cell proliferation was obtained by the reading at 590 nm which was recorded in a spectrophotometer, and normalized to the value of control.
FIG. 9. […] A, Cisplatin-resistant ovarian cancer cell line A2780/CP70, and B, prostate cancer cells PC-3 were seeded in 96-well plates at 1×10^4 cells/well and incubated overnight.
(§4) FIG. 17. […] A, the prostate cancer cells PC-3 and DU145; B, colon cancer cells Colo-205 and HCT-116; C, lung cancer cells A549 and H460 cells were plated at 1×10^4 cells per well in a 96 well plate in 100 μl of media.
FIG. 18. […] A and B, the prostate cancer cells PC-3 and DU145; C, colon cancer cells Colo-205 and HCT-116; D, lung cancer cells A549 and H460 cells were plated at 1×10^4 cells per well in a 96 well plate in 100 μl of media. […] The cell proliferation was analyzed by MTT assay.
(§5) FIG. 19. […] A, prostate cancer cells PC-3; and B, DU145 cells were plated at 1×10^4 cells per well in a 96 well plate in 100 μl of media. […] Cell proliferation was examined by MTT assay.
(§6) FIG. 23. […] Cell proliferation was examined by MTT assay.

[5] = tested on: tumors induced by A2780/CP70 cells; assay: Blood vessel numbers of A2780/CP70 tumors on CAM; assay type: in vivo, chicken embryo; conditions: 2.5 μM CDDP alone, 10 days
Description: as §1

[6] = tested on: Colo-205 cells; assay: MTT cell proliferation assay, Colo-205 colon cancer cells; assay type: cell-based, human; conditions: colo-205, 15 μM apigenin, 24 h
Description: FIG. 17. […] A, the prostate cancer cells PC-3 and DU145; B, colon cancer cells Colo-205 and HCT-116; C, lung cancer cells A549 and H460 cells were plated at 1×10^4 cells per well in a 96 well plate in 100 μl of media. […] FIG. 20. […] A, the prostate cancer cells PC-3 and DU145; B, colon cancer cells Colo-205 and HCT-116; C, lung cancer cells A549 and H460 cells were plated at 1×10^4 cells per well in a 96 well plate. […] Cell proliferation was examined by MTT assay. […] FIG. 22. […] A, colon cancer cells Colo-205 and HCT-116; B, lung cancer cells A549 and H460 cells were plated at 1×10^4 cells per well in a 96 well plate the day before the treatment. […] Cell proliferation was examined by MTT assay. […] FIG. 24. […] The IC50 values for inhibiting cell proliferation were calculated from cell proliferation assay as described above.

[7] = tested on: A2780/CP70 cells; assay: Annexin V apoptosis assay, A2780/CP70; assay type: cell-based, human; conditions: A2780/CP70, 10 μM cisplatin, 24 h
Description: as §2
FIG. 10. […] The cisplatin-resistant ovarian cancer A2780/CP70 cells were seeded in a petri dish. […] After treatment, the cells were collected and the relative cellular apoptosis was analyzed by Annexin V Kit (Roche), and compared to the control.

[8] = tested on: DU145 cells; assay: MTT cell proliferation assay, DU145 prostate cancer cells; assay type: cell-based, human; conditions: DU145, 15 μM apigenin, 24 h
Description: as §3, §4, §5
FIG. 21. […] A, the prostate cancer cells PC-3 and DU145; B and C, colon cancer cells Colo-205 and HCT-116 were plated at 1×10^4 cells per well in a 96 well plate in 100 μl of media a day before the treatment.
as §6

[9] = tested on: PC-3 prostate cancer cells; assay: Cell survival by MTT reduction assay with taxol, PC-3; assay type: cell-based, human; conditions: for IC50: Homo sapiens, 48 h, read-out: IC50 of cell viability (cell survival)
Description: (§7) FIG. 11. […] PC-3 prostate cancer cells and A2780/CP70 ovarian cancer cells were seeded in 96-well plates and incubated overnight. […] After 48 h, cell survival was determined by means of MTT reduction assay.

[10] = tested on: A2780/CP70 ovarian cancer cells; assay: Cell survival by MTT reduction assay with taxol, A2780/CP70; assay type: cell-based, human; conditions: for IC50: Homo sapiens, A2780/CP70, 48 h, 48 h, read-out: IC50 of cell viability (cell survival)
Description: as §7

With `N.N.[Cl][Pt][Cl]` [cisplatin] the “decrease of IC50 by combination with apigenin” value [1] was 20 fold, the “effect on tumor growth” value [2] was “slightly inhibited tumor growth” and the “reduction of cisplatin IC50 by apigenin” value ([3]; A2780/CP70, 10 μM apigenin) was 4 fold. The IC50 ([3]; A2780/CP70, cisplatin alone, read-out: concentration of cisplatin needed to inhibit 50% of cell proliferation (IC50)) was roughly 20000 nM, the IC50 ([3]; A2780/CP70, with addition of 10 μM apigenin, read-out: IC50 of cisplatin for cell proliferation) was 5000 nM and the “reduction of cisplatin IC50 by apigenin” value ([4]; PC-3, 10 μM apigenin) was 7 fold. For the same molecule, the IC50 ([4]; PC-3, in the presence of 10 μM apigenin, 24 h, read-out: cisplatin concentration giving 50% inhibition of cell proliferation) was 3000 nM, the “effect on blood vessel formation” value [5] was “slightly inhibited the blood vessel formation” and the “decrease of IC50 by apigenin” value [6] was 3 fold. The “apoptosis” value [7] was “low levels of apoptosis”.

With `COc1cccc2c1C(=O)c1c(O)c3c(c(O)c1C2=O)C[C@@](O)(C(=O)CO)C[C@@H]3O[C@H]1C[C@H](N)[C@H](O)[C@H](C)O1` [doxorubicin] the “decrease of IC50 by combination with apigenin” value [1] was 20 fold and the “reduction of IC50 of doxorubicin by apigenin” value ([4]; PC-3, 15 μM apigenin, 24 h) was 2 fold.

In the case of `O=c1[nH]cc(F)c(=O)[nH]1` [fluorouracil, reference compound], the “reduction of IC50 of fluorouracil by apigenin” value [8] is reported as 70%.

For `CO[C@@]12[C@H](COC(N)=O)C3=C(C(=O)C(C)=C(N)C3=O)N1C[C@@H]1N[C@@H]12` [mitomycin C], the “decrease of IC50 by apigenin” value [6] was 7 fold.

With `CC(=O)O[C@H]1C(=O)[C@@]2(C)[C@H]([C@H](OC(=O)c3ccccc3)[C@]3(O)C[C@H](OC(=O)[C@H](O)[C@@H](NC(=O)c4ccccc4)c4ccccc4)C(C)=C1C3(C)C)[C@]1(OC(C)=O)CO[C@@H]1C[C@@H]2O` [taxol] the IC50 ([9]; PC-3, taxol alone) was 577 nM, the IC50 ([9]; PC-3, taxol with 20 μM apigenin) was 50.3 nM and the “taxol IC50 with apigenin, fold less than taxol alone” value ([9]; PC-3, 20 μM apigenin) was 11 fold. The “taxol IC50 with apigenin, fold less than taxol alone” value ([10]; A2780/CP70, 20 μM apigenin) was 2 fold, the IC50 ([10]; A2780/CP70, taxol alone) was 503 nM and the IC50 ([10]; A2780/CP70, taxol with 20 μM apigenin) was 225 nM.
